Columns and labels:
[1] = biological target: T1, human FPRL2 (Homo sapiens, UniProt P25089); assay: Intracellular calcium measurements (FLIPR), agonistic activity in HEK293-hFPRL2-Gα16 cells; type: cell-based; details: Fluo-4 calcium FLIPR, normalized to GLY14-Humanin 100 nM
T1 construct: expressed in transfected cells; host or cells: HEK293 (HEK293-hFPRL2-Gα16)
T1 sequence (P25089 1-353): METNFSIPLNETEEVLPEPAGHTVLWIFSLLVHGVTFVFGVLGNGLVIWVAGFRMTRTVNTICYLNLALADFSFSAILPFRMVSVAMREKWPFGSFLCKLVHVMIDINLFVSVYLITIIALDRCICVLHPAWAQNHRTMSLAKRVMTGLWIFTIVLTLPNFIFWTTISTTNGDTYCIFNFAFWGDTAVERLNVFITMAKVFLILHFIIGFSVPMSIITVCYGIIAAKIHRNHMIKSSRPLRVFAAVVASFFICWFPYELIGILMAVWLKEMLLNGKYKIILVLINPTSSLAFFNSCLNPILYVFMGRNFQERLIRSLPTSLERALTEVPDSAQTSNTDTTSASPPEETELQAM
How it was run: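 Peak values after baseline subtraction are expressed relative to 100 nM Gly14-Humanin; compounds diluted in assay buffer from 10 mM DMSO stocks.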

[2] = biological target: T2, human ALX receptor (Homo sapiens, UniProt P25090); assay: Intracellular calcium measurements (FLIPR), agonistic activity in HEK293-hALXR-Gα16 cells; type: cell-based; details: Fluo-4 calcium FLIPR, normalized to WKYMVm 10 nM
T2 construct: expressed in transfected cells; host or cells: HEK293 (HEK293-hALXR-Gα16)
T2 sequence (P25090 1-351): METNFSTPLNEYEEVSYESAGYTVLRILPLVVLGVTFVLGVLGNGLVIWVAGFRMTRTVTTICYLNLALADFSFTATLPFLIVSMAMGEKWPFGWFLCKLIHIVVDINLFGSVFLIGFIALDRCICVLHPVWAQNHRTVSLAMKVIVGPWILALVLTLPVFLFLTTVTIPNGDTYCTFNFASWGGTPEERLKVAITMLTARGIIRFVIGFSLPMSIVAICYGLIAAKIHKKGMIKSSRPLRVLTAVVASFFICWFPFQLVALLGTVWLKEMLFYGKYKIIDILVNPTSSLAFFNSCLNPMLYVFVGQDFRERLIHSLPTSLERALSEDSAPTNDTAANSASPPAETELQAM
How it was run: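 Agonist-induced calcium flux was recorded by FLIPR (488/540 nm) in HEK293-hALXR-Gα16 cells pre-loaded with Fluo-4 AM (1 μM, 60 min, 37°C). Peak signal above baseline, after subtracting buffer addition, was expressed relative to WKYMVm at 10 nM final.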

SMILES | EC50 [1] | EC50 [2]
CN(C)C(=O)CCNC(=O)[C@H]1[C@H](C(=O)Nc2ccc(Br)cc2)[C@@H]2C=C[C@H]1C21CC1 (racemic) [Example 204, (5R*)—N^5-(4-Bromophenyl)-(6R*)—N^6-(3-dimethylamino-3-oxopropyl)-(4S*,7R*)-[4,7-ethenylene-spiro[2.4]heptane]-5,6-dicarboxamide] | 2080 nM | 3.4 nM
NC(=O)CCCNC(=O)[C@H]1[C@H](C(=O)Nc2ccc(Br)cc2)[C@@H]2C=C[C@H]1C21CC1 (racemic) [Example 205, (5R*)—N^5-(4-Bromophenyl)-(6R*)—N^6-(4-amino-4-oxobutyl)-(4S*,7R*)-[4,7-ethenylene-spiro[2.4]heptane]-5,6-dicarboxamide] | 4780 nM | 7.3 nM
O=C(NCCC(=O)N1CCCC1)[C@H]1[C@H](C(=O)Nc2ccc(Br)cc2)[C@@H]2C=C[C@H]1C21CC1 (racemic) [Example 206, (5R*)—N^5-(4-Bromophenyl)-(6R*)—N^6-(3-pyrrolidino-3-oxopropyl)-(4S*,7R*)-[4,7-ethenylene-spiro[2.4]heptane]-5,6-dicarboxamide] | 2980 nM | 31 nM
NC(=O)CNC(=O)[C@H]1[C@H](C(=O)Nc2ccc(Br)cc2)[C@@H]2C=C[C@H]1C21CC1 (racemic) [Example 207, (5R*)—N^5-(4-Bromophenyl)-(6R*)—N^6-(2-amino-2-oxoethyl)-(4S*,7R*)-[4,7-ethenylene-spiro[2.4]heptane]-5,6-dicarboxamide] | 7430 nM | 6.5 nM
CNC(=O)CCNC(=O)[C@H]1[C@H](C(=O)Nc2ccc(Br)cc2)[C@@H]2C=C[C@H]1C21CC1 (racemic) [Example 223, (5R*)—N^5-(4-Bromophenyl)-(6R*)—N^6-(3-methylamino-3-oxopropyl)-(4S*,7R*)-[4,7-ethenylene-spiro[2.4]heptane]-5,6-dicarboxamide] | 1210 nM | 3.2 nM
CC(=O)c1ncc(CNC(=O)[C@H]2[C@H](C(=O)NCCCCN3CCCC3)[C@H]3C=C[C@@H]2C32CC2)s1 (racemic) [Example 224, (5R*)—N^5-(2-Acetyl-thiazol-5-yl-methyl)-(6R*)—N^6-(4-pyrrolidin-1-yl-butyl)-(4S*,7R*)-[4,7-ethenylene-spiro[2.4]heptane]-5,6-dicarboxamide] | 1860 nM | 994 nM
COc1cc(F)c(CNC(=O)[C@H]2[C@H](C(=O)NCCCCN3CCCC3)[C@H]3C=C[C@@H]2C32CC2)c(F)c1 (racemic) [Example 226, (5R*)—N^5-(2,6-Difluoro-4-methoxy-phenyl-methyl)-(6R*)—N^6-(4-pyrrolidin-1-yl-butyl)-(4S*,7R*)-[4,7-ethenylene-spiro[2.4]heptane]-5,6-dicarboxamide] | 356 nM | 912 nM
COc1ccc(CNC(=O)[C@H]2[C@H](C(=O)NCCCCN3CCCC3)[C@H]3C=C[C@@H]2C32CC2)c(F)c1F (racemic) [Example 227, (5R*)—N^5-(2,3-Difluoro-4-methoxy-phenyl-methyl)-(6R*)—N^6-(4-pyrrolidin-1-yl-butyl)-(4S*,7R*)-[4,7-ethenylene-spiro[2.4]heptane]-5,6-dicarboxamide] | 89 nM | 290 nM
COc1ccc(CNC(=O)[C@H]2[C@H](C(=O)NCCCCN3CCCC3)[C@H]3C=C[C@@H]2C32CC2)cc1F (racemic) [Example 228, (5R*)—N^5-(3-Fluoro-4-methoxy-phenyl-methyl)-(6R*)—N^6-(4-pyrrolidin-1-yl-butyl)-(4S*,7R*)-[4,7-ethenylene-spiro[2.4]heptane]-5,6-dicarboxamide] | 308 nM | 389 nM

Results, then the compound that gave them:

EC50 [1] | EC50 [2] | SMILES
67 nM | 119 nM | COc1c(F)cc(CNC(=O)[C@H]2[C@H](C(=O)NCCCCN3CCCC3)[C@H]3C=C[C@@H]2C32CC2)cc1F (racemic) [Example 229, (5R*)—N^5-(3,5-Difluoro-4-methoxy-phenyl-methyl)-(6R*)—N^6-(4-pyrrolidin-1-yl-butyl)-(4S*,7R*)-[4,7-ethenylene-spiro[2.4]heptane]-5,6-dicarboxamide]
65 nM | 31 nM | O=C(NCCCCN1CCCC1)[C@H]1[C@H](C(=O)NCc2ccc(Cl)cc2)[C@@H]2C=C[C@H]1C21CC1 (racemic) [Example 230, (5R*)—N^5-(4-Chloro-phenyl-methyl)-(6R*)—N^6-(4-pyrrolidin-1-yl-butyl)-(4S*,7R*)-[4,7-ethenylene-spiro[2.4]heptane]-5,6-dicarboxamide]
159 nM | 514 nM | O=C(NCCCCN1CCCC1)[C@H]1[C@H](C(=O)NCc2ccc(F)cc2)[C@@H]2C=C[C@H]1C21CC1 (racemic) [Example 231, (5R*)—N^5-(4-Fluoro-phenyl-methyl)-(6R*)—N^6-(4-pyrrolidin-1-yl-butyl)-(4S*,7R*)-[4,7-ethenylene-spiro[2.4]heptane]-5,6-dicarboxamide]
112 nM | 1260 nM | O=C(NCCCCN1CCCC1)[C@H]1[C@H](C(=O)NCc2ccc(OC(F)(F)F)cc2)[C@@H]2C=C[C@H]1C21CC1 (racemic) [Example 232, (5R*)—N^5-(4-Trifluoromethoxy-phenyl-methyl)-(6R*)—N^6-(4-pyrrolidin-1-yl-butyl)-(4S*,7R*)-[4,7-ethenylene-spiro[2.4]heptane]-5,6-dicarboxamide]
197 nM | 7220 nM | CC(C)Oc1ccc(CNC(=O)[C@H]2[C@H](C(=O)NCCCCN3CCCC3)[C@H]3C=C[C@@H]2C32CC2)cc1 (racemic) [Example 233, (5R*)—N^5-(4-Isopropoxy-phenyl-methyl)-(6R*)—N^6-(4-pyrrolidin-1-yl-butyl)-(4S*,7R*)-[4,7-ethenylene-spiro[2.4]heptane]-5,6-dicarboxamide]
176 nM | 73 nM | O=C(NCCCCN1CCCC1)[C@H]1[C@H](C(=O)NCc2nc(Br)cs2)[C@@H]2C=C[C@H]1C21CC1 (racemic) [Example 234, (5R*)—N^5-(4-Bromo-thiazol-2-yl-methyl)-(6R*)—N^6-(4-pyrrolidin-1-yl-butyl)-(4S*,7R*)-[4,7-ethenylene-spiro[2.4]heptane]-5,6-dicarboxamide]
181 nM | 153 nM | CC(=O)c1nc(CNC(=O)[C@H]2[C@H](C(=O)NCCCCN3CCCC3)[C@H]3C=C[C@@H]2C32CC2)co1 (racemic) [Example 235, (5R*)—N^5-(2-Acetyl-oxazol-4-yl-methyl)-(6R*)—N^6-(4-pyrrolidin-1-yl-butyl)-(4S*,7R*)-[4,7-ethenylene-spiro[2.4]heptane]-5,6-dicarboxamide]
292 nM | 49 nM | O=C(NCCCN1CCCC1)[C@H]1[C@H](C(=O)NCc2ccc(Br)cc2)[C@@H]2C=C[C@H]1C21CC1 (racemic) [Example 236, (5R*)—N^5-(4-Bromo-phenyl-methyl)-(6R*)—N^6-(3-pyrrolidin-1-yl-propyl)-(4S*,7R*)-[4,7-ethenylene-spiro[2.4]heptane]-5,6-dicarboxamide]
542 nM | 305 nM | O=C(NCCCN1CCCC1)[C@H]1[C@H](C(=O)Nc2ncc(Br)s2)[C@@H]2C=C[C@H]1C21CC1 (racemic) [Example 237, (5R*)—N^5-(5-Bromo-thiazol-2-yl)-(6R*)—N^6-(3-pyrrolidin-1-yl-propyl)-(4S*,7R*)-[4,7-ethenylene-spiro[2.4]heptane]-5,6-dicarboxamide]
2300 nM | 170 nM | CC(=O)c1coc(CNC(=O)[C@H]2[C@H](C(=O)NCCCCN3CCCC3)[C@H]3C=C[C@@H]2C32CC2)n1 (racemic) [Example 243, (5R*)—N^5-(4-Acetyl-oxazol-2-yl-methyl)-(6R*)—N^6-(4-pyrrolidin-1-yl-butyl)-(4S*,7R*)-[4,7-ethenylene-spiro[2.4]heptane]-5,6-dicarboxamide]
> 25000 nM | 369 nM | CC(=O)c1csc(CNC(=O)[C@H]2[C@H](C(=O)NCC(C)C)[C@H]3C=C[C@@H]2C32CC2)n1 (racemic) [Example 244, (5R*)—N^5-(4-Acetyl-thiazol-2-yl-methyl)-(6R*)—N^6-(isobutyl)-(4S*,7R*)-[4,7-ethenylene-spiro[2.4]heptane]-5,6-dicarboxamide]
5330 nM | 191 nM | CC(C)CNC(=O)[C@H]1[C@H](C(=O)NCc2ccc(Br)cc2)[C@@H]2C=C[C@H]1C21CC1 (racemic) [Example 246, (5R*)—N^5-(4-Bromo-phenyl-methyl)-(6R*)—N^6-(isobutyl)-(4S*,7R*)-[4,7-ethenylene-spiro[2.4]heptane]-5,6-dicarboxamide]

— US8563714B2, “Bridged spiro [2.4] heptane derivatives as ALX receptor and/or FPRL2 agonists” (Actelion Pharmaceuticals Ltd., priority 2009, dated 2013)
